Test results reported in patent US9562033B2, “Inhibitors of viral replication, their process of preparation and their therapeutical uses” (LABORATOIRE BIODIM, priority 2012, dated 2017).

System: NL4-3 strain of HIV-1
Test: HIV-1 replication inhibition: cyto-protection of MT4 cells infected with NL4-3 virus (CellTiter-Glo viability assay)
Format: cell-based
Details: Human immunodeficiency virus 1, NL43, 120 h, concentration leading to 50% of cyto-protection, 5 days incubation
Procedure: The antiviral activity, particularly against HIV, of compounds according to the invention is evaluated by the protocol described below.
Preparation of Virus Stock of the NL4-3 Strain of HIV-1
The virus was prepared as described in Lopez et al (Lopez et al, Proc Natl Acad Sci USA., 2006, 103(40):14947-52, by transfecting 2×10^6 293 T cells (CRL-1573, ATCC) with following modifications: 6 μg of NL4-3 proviral DNA molecular clone were mixed with Fugene 6 transfection reagent from Roche, and used according to manufacturer's instructions. Forty eight hours later, transfected cell supernatants were harvested, filtered through 0.45-μm-pore-size filters, quantified for HIV-1 p24 antigen by using a Innotest HIV antigen mAb assay (Ingen) according to manufacturer's instructions, and used in infection experiments.
Preparation of Compounds:
Serial dilutions of compounds to be tested were prepared in complete RPMI medium from 10 mM DMSO stock solutions, and distributed in a volume of 20 µl in 96 well Falcon 353072 Microtest™ tissue culture plate, in order to get 0.5% DMSO final concentration in each well, after the addition of infected cells. Control wells contained also 0.5% DMSO final concentration but no compound.
MT4 cells (from the NIH AIDS Research and Reference Reagent Program) in RPMI complete medium were counted (10×10^6 cells per well in Falcon 353047 Multiwell™ 24 well) and infected for 2 hours at 37°, at a multiplicity of infection (moi) of 0.0001-0.00001. Cells were then centrifuged 3 min at 3000 rpm, and washed two times in 1 ml PBS to remove viruses that have not entered in cells. Infected cells were resuspended in complete RPMI at 1.25×10^6 cells/ml, and 80 µl of infected cells were distributed in each well containing compounds to be tested or control wells. The plates were then incubated at 37° for 5 days.
Assay Used to Measure the Inhibition of HIV Replication by the Compounds
(according to Gregg S. Jones et al., Antimicrobial Agents and Chemotherapy, 2009, 53 (3): 1194-1203).
After 5 days of incubation, […] of CellTiter-Glo reagent (Promega Biosciences, Inc., Madison Wis., USA) were added to each well. Cell lysis was carried out at room temperature during 10 min, 150 μl of lysates were transferred in Packard Optiplate 96 well, and luminescence was read on a Fluoroskan (Thermo Scientific).

| Compound | EC50 [nM] |
| --- | --- |
| Cc1sc(-c2ccccc2)c(-c2ccc3c4c(ccnc24)CCO3)c1C(OC(C)(C)C)C(=O)O (stereo not drawn) [Example 61, 2-(tert-butoxy)-2-[2-methyl-4-(2,3-dihydropyrano[4,3,2-de]quinolin-7-yl)-5-phenyl-thiophen-3-yl]acetic acid] | 210 |
| Cc1sc(-c2ccc(=O)n(C)c2)c(C2=CCC(C)(C)CC2)c1C(OC(C)(C)C)C(=O)O (stereo not drawn) [Example 30] | 70 |
| Cc1sc(-c2ccncc2)c(-c2cc(F)c3c(c2C)CCCO3)c1C(OC(C)(C)C)C(=O)O (stereo not drawn) [Example 39, 2-(tert-butoxy)-2-[4-(8-fluoro-5-methyl-3,4-dihydro-2H-1-benzopyran-6-yl)-2-methyl-5-(pyridin-4-yl)thiophen-3-yl]acetic acid] | 730 |
| Cc1sc(-c2ccncc2)c(-c2ccc3c(c2)CCCO3)c1C(OC(C)(C)C)C(=O)O (stereo not drawn) [Example 3, 2-(tert-butoxy)-2-[4-(3,4-dihydro-2H-1-benzopyran-6-yl)-2-methyl-5-(pyridin-4-yl)thiophen-3-yl]acetic acid] | 100 |
| Cc1sc(-c2cc(F)c3c(c2)CCCO3)c(-c2cc(F)c3c(c2)CCCO3)c1C(OC(C)(C)C)C(=O)O (stereo not drawn) [Example 75, 2-[4,5-bis(8-fluoro-3,4-dihydro-2H-1-benzopyran-6-yl)-2-methylthiophen-3-yl]-2-(tert-butoxy)acetic acid] | 2400 |
| Cc1sc(-c2cnn(Cc3ccccc3)c2)c(-c2ccc3c(c2)CCCO3)c1C(OC(C)(C)C)C(=O)O (stereo not drawn) [Example 80, 2-[5-(1-benzyl-1H-pyrazol-4-yl)-4-(3,4-dihydro-2H-1-benzopyran-6-yl)-2-methylthiophen-3-yl]-2-(tert-butoxy)acetic acid] | 6200 |
| CC(=O)Nc1ccc(-c2sc(C)c(C(OC(C)(C)C)C(=O)O)c2C2=CCC(C)(C)CC2)cc1 (stereo not drawn) [Example 33, 2-(tert-butoxy)-2-[4-(4,4-dimethylcyclohex-1-en-1-yl)-2-methyl-5-(acetamidophen-4-yl)thiophen-3-yl]acetic acid] | 230 |
| Cc1sc(-c2ccccc2)c(C2=CCC(C)(C)CC2)c1C(OC(C)(C)C)C(=O)O (stereo not drawn) [Example 44, 2-(tert-butoxy)-2-[4-(4,4-dimethylcyclohex-1-en-1-yl)-2-methyl-5-phenylthiophen-3-yl]acetic acid] | 230 |
| Cc1sc(-c2ccoc2)c(-c2ccc3c(c2)CCCO3)c1C(OC(C)(C)C)C(=O)O (stereo not drawn) [Example 16, 2-(tert-butoxy)-2-[4-(3,4-dihydro-2H-1-benzopyran-6-yl)-5-(furan-3-yl)-2-methylthiophen-3-yl]acetic acid] | 820 |
| Cc1sc(-c2ccc(=O)n(Cc3ccccc3)c2)c(C2=CCC(C)(C)CC2)c1C(OC(C)(C)C)C(=O)O (stereo not drawn) [Example 34] | 750 |
| CNC(=O)c1ccc(-c2sc(C)c(C(OC(C)(C)C)C(=O)O)c2C2=CCC(C)(C)CC2)cc1 (stereo not drawn) [Example 29, 2-(tert-butoxy)-2-[4-(4,4-dimethylcyclohex-1-en-1-yl)-2-methyl-5-(N-methyl-4-aminocarbonylphenyl)thiophen-3-yl]acetic acid] | 90 |
| Cc1sc(-c2ccc(C(=O)N(C)C)cc2)c(C2=CCC(C)(C)CC2)c1C(OC(C)(C)C)C(=O)O (stereo not drawn) [Example 76] | 3300 |
| Cc1sc(-c2ccnc(F)c2)c(-c2ccc3c(c2)CCCO3)c1C(OC(C)(C)C)C(=O)O (stereo not drawn) [Example 13, 2-(tert-butoxy)-2-[4-(3,4-dihydro-2H-1-benzopyran-6-yl)-5-(2-fluoropyridin-4-yl)-2-methylthiophen-3-yl) acetic acid] | 150 |
| Cc1sc(-c2ccns2)c(C2=CCC(C)(C)CC2)c1C(OC(C)(C)C)C(=O)O (stereo not drawn) [Example 63, 2-(tert-butoxy)-2-{2-methyl-4-[4,4-dimethylcyclohex-1-en-1-yl]-5-(isothiazol-5-yl)thiophen-3-yl}acetic acid] | 950 |
| Cc1sc(-c2ccncc2)c(C2=CCC(CF)(CF)CC2)c1C(OC(C)(C)C)C(=O)O (stereo not drawn) [Example 48, [4-(4,4-bis-fluoromethyl-cyclohex-1-enyl)-2-methyl-5-pyridin-4-yl-thiophen-3-yl]-tert-butoxy-acetic acid] | 130 |
| Cc1sc(-c2ccncc2)c(C2=CCC3(CC2)CC3)c1C(OC(C)(C)C)C(=O)O (stereo not drawn) [Example 12, 2-(tert-butoxy)-2-[2-methyl-5-(pyridin-4-yl)-4-{spiro[2,5]oct-5-en-6-yl}thiophen-3-yl]acetic acid] | 130 |
| Cc1sc(-c2ccc(C(N)=O)cc2)c(C2=CCC(C)(C)CC2)c1C(OC(C)(C)C)C(=O)O (stereo not drawn) [Example 27, 2-(tert-butoxy)-2-[5-(4-carbamoylphenyl)-4-(4,4-dimethylcyclohex-1-en-1-yl)-2-methylthiophen-3-yl]acetic acid] | 90 |
| Cc1sc(-c2ccncc2)c(C2=CCC(C)(C)CC2)c1[C@H](OC(C)(C)C)C(=O)O [Example 11, (2S)-2-(tert-butoxy)-2-[4-(4,4-dimethylcyclohex-1-en-1-yl)-2-methyl-5-(pyridin-4-yl)thiophen-3-yl]acetic acid] | 32 |
| Cc1sc(-c2cccs2)c(-c2ccc3c(c2)CCCO3)c1C(OC(C)(C)C)C(=O)O (stereo not drawn) [Example 23, 2-(tert-butoxy)-2-[4-(3,4-dihydro-2H-1-benzopyran-6-yl)-2-methyl-5-(thiophen-2-yl)thiophen-3-yl]acetic acid] | 170 |
| Cc1sc(-c2ccncc2)c(C2=CCC(C(C)C)CC2)c1C(OC(C)(C)C)C(=O)O (stereo not drawn) [Example 6, 2-(tert-butoxy)-2-{2-methyl-4-[4-(propan-2-yl)cyclohex-1-en-1-yl]-5-(pyridin-4-yl)thiophen-3-yl}acetic acid] | 160 |
| Cc1sc(-c2ccccc2)c(C2=CCC(C)(C)c3cccnc32)c1C(OC(C)(C)C)C(=O)O (stereo not drawn) [Example 67, 2-(tert-butoxy)-2-[4-(5,5-dimethyl-5,6-dihydroquinolin-8-yl)-2-methyl-5-phenylthiophen-3-yl]acetic acid] | 2300 |
| Cc1cc(-c2sc(C)c(C(OC(C)(C)C)C(=O)O)c2-c2ccc3c(c2)CCCO3)ccn1 (stereo not drawn) [Example 14, 2-(tert-butoxy)-2-[4-(3,4-dihydro-2H-1-benzopyran-6-yl)-2-methyl-5-(2-methylpyridin-4-yl)thiophen-3-yl]acetic acid] | 480 |
| CNC(=O)c1cccc(-c2sc(C)c(C(OC(C)(C)C)C(=O)O)c2C2=CCC(C)(C)CC2)c1 (stereo not drawn) [Example 41, 2-(tert-butoxy)-2-[4-(4,4-dimethylcyclohex-1-en-1-yl)-2-methyl-5-(methylaminocarbonylphen-3-yl)thiophen-3-yl]acetic acid] | 50 |
| Cc1sc(-c2ccccn2)c(C2=CCC(C)(C)CC2)c1C(OC(C)(C)C)C(=O)O (stereo not drawn) [Example 43, 2-(tert-butoxy)-2-[4-(4,4-dimethylcyclohex-1-en-1-yl)-2-methyl-5-(pyridin-2-yl)thiophen-3-yl]acetic acid] | 440 |
| CCCn1cc(-c2sc(C)c(C(OC(C)(C)C)C(=O)O)c2C2=CCC(C)(C)CC2)ccc1=O (stereo not drawn) [Example 35] | 340 |
| Cc1sc(-c2ccnc3ccccc23)c(-c2ccc3c(c2)CCCO3)c1C(OC(C)(C)C)C(=O)O (stereo not drawn) [Example 15, 2-(tert-butoxy)-2-[4-(3,4-dihydro-2H-1-benzopyran-6-yl)-2-methyl-5-(quinolin-4-yl)thiophen-3-yl]acetic acid] | 410 |
| Cc1sc(-c2ccnc(OCc3ccccc3)c2)c(-c2ccc3c(c2)CCCO3)c1C(OC(C)(C)C)C(=O)O (stereo not drawn) [Example 17, 2-{5-[2-(benzyloxy)pyridin-4-yl]-4-(3,4-dihydro-2H-1-benzopyran-6-yl)-2-methylthiophen-3-yl}-2-(tert-butoxy)acetic acid] | 650 |
| COc1cc(-c2sc(C)c(C(OC(C)(C)C)C(=O)O)c2-c2ccc3c(c2)CCCO3)ccn1 (stereo not drawn) [Example 84, 2-(tert-butoxy)-2-[4-(3,4-dihydro-2H-1-benzopyran-6-yl)-5-(2-methoxy-pyridin-4-yl)-2-methylthiophen-3-yl]acetic acid] | 1500 |
| Cc1ccc(-c2sc(C)c(C(OC(C)(C)C)C(=O)O)c2C2=CCC(C)(C)CC2)nc1 (stereo not drawn) [Example 46, 2-(tert-butoxy)-2-[4-(4,4-dimethylcyclohex-1-en-1-yl)-2-methyl-5-(5-methylpyridin-2-yl)thiophen-3-yl]acetic acid] | 450 |
| Cc1sc(-c2cnn(C)c2)c(C2=CCC(C)(C)CC2)c1C(OC(C)(C)C)C(=O)O (stereo not drawn) [Example 24, 2-(tert-butoxy)-2-[4-(4,4-dimethylcyclohex-1-en-1-yl)-2-methyl-5-(N-methylpyrazol-4-yl)thiophen-3-yl]acetic acid] | 310 |
